Data taken from patent US20100010219A1, “METHOD FOR PRODUCING PYRROLIDINE COMPOUND” (JAPAN TOBACCO INC., priority 2006, published 2010).
Where a name gives a salt, the structure may show the parent alone.

Target: T1, human HSD-1 (recombinant HSD-1) (Homo sapiens, UniProt P28845)
T1 construct: made in house
Assay: HSD-1 activity inhibitory action in vitro (SPA, conversion of cortisone to cortisol)
Assay type: biochemical
Settings: recombinant human HSD-1 expressed using baculovirus system; 10 nM 3H cortisone, 500 μM NADPH; room temperature 90 to 120 min; read-out: hHSD1 (IC50 (nM))

T1 sequence (P28845 whole entry): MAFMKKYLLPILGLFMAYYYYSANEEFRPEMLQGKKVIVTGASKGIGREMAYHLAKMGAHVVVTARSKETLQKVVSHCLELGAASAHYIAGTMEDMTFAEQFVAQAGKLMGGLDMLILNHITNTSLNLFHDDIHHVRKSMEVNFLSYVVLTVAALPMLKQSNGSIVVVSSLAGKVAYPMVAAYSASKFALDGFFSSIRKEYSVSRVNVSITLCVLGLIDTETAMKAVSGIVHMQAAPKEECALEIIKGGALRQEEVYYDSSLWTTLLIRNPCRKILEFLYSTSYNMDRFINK

| IC50 [nM] | Compound |
| --- | --- |
| < 30 | O=C(Nc1ccc(Cl)nc1Cl)N1CCC(n2ncc(C(=O)N3CCC(c4ccccc4C(F)(F)F)C3)c2C2CC2)CC1 (stereo not drawn) [Example 150, 1-{5-cyclopropyl-1-[1-(2,6-dichloropyridin-3-ylcarbamoyl)piperidin-4-yl]-1H-pyrazole-4-carbonyl}-3-(2-trifluoromethylphenyl)pyrrolidine] |
| < 30 | CC1(c2c(C(=O)N3CCC(c4cccnc4)C3)cnn2C2CCN(C(=O)N3CCCCc4ccccc43)CC2)CC1 (stereo not drawn) [Example 151, 1-{5-(1-methylcyclopropyl)-1-[1-(2,3,4,5-tetrahydrobenzo[b]azepine-1-carbonyl)piperidin-4-yl]-1H-pyrazole-4-carbonyl}-3-(pyridin-3-yl)pyrrolidine] |
| < 30 | CC(C)(CC(=O)N1CCC(n2ncc(C(=O)N3CCC(c4ccccc4C(F)(F)F)C3)c2C2CC2)CC1)C(=O)O (stereo not drawn) [Example 154, 1-{1-[1-(3-carboxy-3-methyl-butyryl)piperidin-4-yl]-5-cyclopropyl-1H-pyrazole-4-carbonyl}-3-(2-trifluoromethylphenyl)pyrrolidine] |
| < 30 | O=C(COc1ccccc1)N1CCC(n2ncc(C(=O)N3CCC(c4cccnc4)C3)c2C2CC2)CC1 (stereo not drawn) [Example 155, 1-{5-cyclopropyl-1-[1-(2-phenoxyacetyl)piperidin-4-yl]-1H-pyrazole-4-carbonyl}-3-(pyridin-3-yl)pyrrolidine] |
| < 30 | O=C(c1cccc(Cl)c1)N1CCC(n2ncc(C(=O)N3CCC(c4cccnc4)C3)c2C2CC2)CC1 (stereo not drawn) [Example 156, 1-{1-[1-(3-chlorobenzoyl)piperidin-4-yl]-5-cyclopropyl-1H-pyrazole-4-carbonyl}-3-(pyridin-3-yl)pyrrolidine] |
| < 30 | O=C(c1ccccc1Cl)N1CCC(n2ncc(C(=O)N3CCC(c4cccnc4)C3)c2C2CC2)CC1 (stereo not drawn) [Example 157, 1-{1-[1-(2-chlorobenzoyl)piperidin-4-yl]-5-cyclopropyl-1H-pyrazole-4-carbonyl}-3-(pyridin-3-yl)pyrrolidine] |
| < 30 | O=C(O)C(=O)N1CCC(n2ncc(C(=O)N3CCC(c4ccccc4C(F)(F)F)C3)c2C2CC2)CC1 (stereo not drawn) [Example 158, 1-[5-cyclopropyl-1-(1-oxalylpiperidin-4-yl)-1H-pyrazole-4-carbonyl]-3-(2-trifluoromethylphenyl)pyrrolidine] |
| < 30 | NC(=O)c1ccc(N2CCC(n3ncc(C(=O)N4CCC(c5ccccc5C(F)(F)F)C4)c3C3CC3)CC2)cc1 (stereo not drawn) [Example 165, 1-{1-[1-(4-carbamoylphenyl)piperidin-4-yl]-5-cyclopropyl-1H-pyrazole-4-carbonyl}-3-(2-trifluoromethylphenyl)pyrrolidine] |
| < 30 | O=C(c1cnn(C2CCN(c3ccc(CO)cc3)CC2)c1C1CC1)N1CCC(c2ccccc2C(F)(F)F)C1 (stereo not drawn) [Example 166, 1-{5-cyclopropyl-1-[1-(4-hydroxymethylphenyl)piperidin-4-yl]-1H-pyrazole-4-carbonyl}-3-(2-trifluoromethylphenyl)pyrrolidine] |
| < 30 | NC(=O)c1ccc(N2CCC(n3ncc(C(=O)N4CCC(c5ccccc5C(F)(F)F)C4)c3C3CC3)CC2)nc1 (stereo not drawn) [Example 167, 1-{1-[1-(5-carbamoyl-pyridin-2-yl)piperidin-4-yl]-5-cyclopropyl-1H-pyrazole-4-carbonyl}-3-(2-trifluoromethylphenyl)pyrrolidine] |
| < 30 | Nc1ccc(N2CCC(n3ncc(C(=O)N4CCC(c5ccccc5C(F)(F)F)C4)c3C3CC3)CC2)cc1 (stereo not drawn) [Example 168, 1-{1-[1-(4-aminophenyl)piperidin-4-yl]-5-cyclopropyl-1H-pyrazole-4-carbonyl}-3-(2-trifluoromethylphenyl)pyrrolidine] |
| < 30 | O=C(c1cnn(C2CCN(c3ccc(N4CCOC4=O)cc3)CC2)c1C1CC1)N1CCC(c2ccccc2C(F)(F)F)C1 (stereo not drawn) [Example 169, 1-(5-cyclopropyl-1-{1-[4-(2-oxooxazolidin-3-yl)phenyl]piperidin-4-yl}-1H-pyrazole-4-carbonyl)-3-(2-trifluoromethylphenyl)pyrrolidine] |
| < 30 | CONC(=O)Nc1ccc(N2CCC(n3ncc(C(=O)N4CCC(c5ccccc5C(F)(F)F)C4)c3C3CC3)CC2)cc1 (stereo not drawn) [Example 170, 1-(5-cyclopropyl-1-{1-[4-(3-methoxyureido)phenyl]piperidin-4-yl}-1H-pyrazole-4-carbonyl)-3-(2-trifluoromethylphenyl)pyrrolidine] |
| < 30 | CS(=O)(=O)Nc1ccc(N2CCC(n3ncc(C(=O)N4CCC(c5ccccc5C(F)(F)F)C4)c3C3CC3)CC2)cc1 (stereo not drawn) [Example 171, 1-{5-cyclopropyl-1-[1-(4-methanesulfonylaminophenyl)piperidin-4-yl]-1H-pyrazole-4-carbonyl}-3-(2-trifluoromethylphenyl)pyrrolidine] |
| < 30 | CCONC(=O)N1CCC(n2ncc(C(=O)N3CCC(c4ccccc4C(F)(F)F)C3)c2C2(C)CC2)CC1 (stereo not drawn) [Example 172, 1-[1-(1-ethoxycarbamoylpiperidin-4-yl)-5-(1-methylcyclopropyl)-1H-pyrazole-4-carbonyl]-3-(2-trifluoromethylphenyl)pyrrolidine] |
| < 30 | O=C(c1cnn(C2CN(c3ccc(Cl)cn3)C2)c1C1CC1)N1CCC(c2ccccc2C(F)(F)F)C1 (stereo not drawn) [Example 173] |
| < 30 | COCC1(c2ccccc2)CCN(C(=O)c2cnn(C3CCN(c4ccc(Cl)cn4)CC3)c2C2(C)CC2)C1 (stereo not drawn) [Example 174, 1-{1-[1-(5-chloropyridin-2-yl)piperidin-4-yl]-5-(1-methylcyclopropyl)-1H-pyrazole-4-carbonyl}-3-methoxymethyl-3-phenylpyrrolidine] |
| < 30 | N#Cc1ccc(N2CCC(n3ncc(C(=O)N4CCC(c5ccccc5C(F)(F)F)C4)c3C3CC3)CC2)nc1 (stereo not drawn) [Example 175, 1-{1-[1-(5-cyanopyridin-2-yl)piperidin-4-yl]-5-cyclopropyl-1H-pyrazole-4-carbonyl}-3-(2-trifluoromethylphenyl)pyrrolidine] |
| < 30 | COC(=O)c1ccc(N2CCC(n3ncc(C(=O)N4CCC(c5ccccc5C(F)(F)F)C4)c3C3CC3)CC2)nc1 (stereo not drawn) [Example 178, methyl 6-(4-{5-cyclopropyl-4-[3-(2-trifluoromethylphenyl)pyrrolidine-1-carbonyl]pyrazol-1-yl}piperidin-1-yl)nicotinate] |
| < 30 | COC(=O)c1ccccc1C1CCN(C(=O)c2cnn(C3CCN(c4ncccn4)CC3)c2C2(C)CC2)C1 (stereo not drawn) [Example 179, methyl 2-{1-[5-(1-methylcyclopropyl)-1-(1-pyrimidin-2-ylpiperidin-4-yl)-1H-pyrazole-4-carbonyl]pyrrolidin-3-yl}benzoate] |
| < 30 | CC1(c2c(C(=O)N3CCC(c4ccccc4CO)C3)cnn2C2CCN(c3ncccn3)CC2)CC1 (stereo not drawn) [Example 180, 3-(2-hydroxymethylphenyl)-1-{5-(1-methylcyclopropyl)-1-[1-(pyrimidin-2-yl)piperidin-4-yl]-1H-pyrazole-4-carbonyl}pyrrolidine hydrochloride] |
| < 30 | CC(=O)Nc1ccc(N2CCC(n3ncc(C(=O)N4CCC(c5ccccc5C(F)(F)F)C4)c3C3CC3)CC2)cc1 (stereo not drawn) [Example 182, 1-{1-[1-(4-acetylaminophenyl)piperidin-4-yl]-5-cyclopropyl-1H-pyrazole-4-carbonyl}-3-(2-trifluoromethylphenyl)pyrrolidine] |
| < 30 | O=C(O)c1ccc(N2CCC(n3ncc(C(=O)N4CCC(c5ccccc5C(F)(F)F)C4)c3C3CC3)CC2)c(F)c1 (stereo not drawn) [Example 183, Sodium 4-(4-{5-cyclopropyl-4-[3-(2-trifluoromethylphenyl)pyrrolidine-1-carbonyl]pyrazol-1-yl}piperidin-1-yl)-3-fluorobenzoate] |
| < 30 | N#Cc1ccccc1C1CCN(C(=O)c2cnn(C3CCN(C(=O)Nc4ccccc4F)CC3)c2C2CC2)C1 (stereo not drawn) [Example 184, 3-(2-cyanophenyl)-1-{5-cyclopropyl-1-[1-(2-fluorophenylcarbamoyl)piperidin-4-yl]-1H-pyrazole-4-carbonyl}pyrrolidine] |
| < 30 | COc1ccnc(N2CCC(n3ncc(C(=O)N4CCC(CO)(c5ccccc5)C4)c3C3(C)CC3)CC2)n1 (stereo not drawn) [Example 185, 3-hydroxymethyl-1-{1-[1-(4-methoxypyrimidin-2-yl)piperidin-4-yl]-5-(1-methylcyclopropyl)-1H-pyrazole-4-carbonyl}-3-phenylpyrrolidine hydrochloride] |
| < 30 | CC1(c2c(C(=O)N3CCC(CO)(c4cc(F)cc(F)c4)C3)cnn2C2CCN(c3ncccn3)CC2)CC1 (stereo not drawn) [Example 186, 3-(3,5-difluorophenyl)-3-hydroxymethyl-1-{5-(1-methylcyclopropyl)-1-[1-(pyrimidin-2-yl)piperidin-4-yl]-1H-pyrazole-4-carbonyl}pyrrolidine hydrochloride] |
| < 30 | O=C(c1cnn(C2CCN(c3ncccc3Cl)CC2)c1C1CC1)N1CCC(c2cccnc2)C1 (stereo not drawn) [Example 187, 1-{1-[1-(3-chloropyridin-2-yl)piperidin-4-yl]-5-cyclopropyl-1H-pyrazole-4-carbonyl}-3-(pyridin-3-yl)pyrrolidine] |
| < 30 | CC(C)[C@@H](C(=O)O)N(C)C(=O)[C@H]1CC[C@H](n2ncc(C(=O)N3CCC(c4ccccc4C(F)(F)F)C3)c2C2CC2)CC1 (stereo partly drawn) [Example 189, (S)-2-[(trans-4-{5-cyclopropyl-4-[3-(2-trifluoromethylphenyl)pyrrolidine-1-carbonyl]pyrazol-1-yl}cyclohexanecarbonyl)methylamino]-3-methylbutyric acid] |
| < 30 | CC1(c2c(C(=O)N3CCC(c4ccccc4C(F)(F)F)C3)cnn2[C@H]2CC[C@H](C(=O)Nc3ccccc3F)CC2)CC1 (stereo partly drawn) [Example 190, 1-{5-(1-methylcyclopropyl)-1-[trans-4-(2-fluorophenylcarbamoyl)cyclohexyl]-1H-pyrazole-4-carbonyl}-3-(2-trifluoromethylphenyl)pyrrolidine] |

| Compound | IC50 [nM] |
| --- | --- |
| CC(=O)OCCC1(c2ccc(F)cc2)CCN(C(=O)c2cnn(C3CCN(c4ncccn4)CC3)c2C2(C)CC2)C1 (stereo not drawn) [Example 176, 3-(2-acetoxyethyl)-3-(4-fluorophenyl)-1-{5-(1-methylcyclopropyl)-1-[1-(pyrimidin-2-yl)piperidin-4-yl]-1H-pyrazole-4-carbonyl}pyrrolidine hydrochloride] | < 30 |
